The source of these data is US20030162777A1, “Novel N-acylated heterocycles” (Recordati S.A., priority 2001, published 2003).

Molecules are shown by their SMILES.

The target in the assay is T1, human 5HT1A-serotonergic receptor (Homo sapiens, UniProt P08908).
T1 construct: expressed in transfected cells; host or cells: HeLa (human cell line), stably transfected; cell membranes used
T1 sequence (P08908 1-422): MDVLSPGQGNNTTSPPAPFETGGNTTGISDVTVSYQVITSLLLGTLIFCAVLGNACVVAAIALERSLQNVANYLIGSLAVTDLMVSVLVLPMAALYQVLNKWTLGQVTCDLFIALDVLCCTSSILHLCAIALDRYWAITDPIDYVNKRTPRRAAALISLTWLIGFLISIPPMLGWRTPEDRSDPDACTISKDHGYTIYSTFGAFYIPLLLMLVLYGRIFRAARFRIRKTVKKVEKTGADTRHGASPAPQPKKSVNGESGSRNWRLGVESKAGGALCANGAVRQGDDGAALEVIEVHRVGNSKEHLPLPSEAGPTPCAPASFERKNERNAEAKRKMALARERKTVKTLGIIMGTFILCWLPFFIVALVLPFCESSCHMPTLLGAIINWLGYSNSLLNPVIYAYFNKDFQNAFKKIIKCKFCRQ
The assay is described as follows: Radioligand binding to recombinant 5-HT1A receptors. Conditions: [3H]8-OH-DPAT 1 nM, membranes of HeLa cells with human 5-HT1A receptor; Ki from IC50 by Cheng & Prusoff; read-out: Binding affinity for 5HT1A receptors, Ki. The procedure:
Genomic clone G-21 coding for the human 5HT1A-serotonergic receptor was stably transfected in a human cell line (HeLa). HeLa cells were grown as monolayers in Dulbecco's modified Eagle medium (DMEM), containing 10% foetal bovine serum, gentamicin ([…]) and 5% carbon dioxide, at 37° C. The cells were detached from the growth flask at 95% confluence by a cell scraper and were lysed in cold 5 mM Tris and 5 mM EDTA buffer (pH 7.4). The homogenates were centrifuged at 40000×g×20 minutes and the pellets were resuspended in a small volume of cold 5 mM Tris and 5 mM EDTA buffer (pH 7.4) and immediately frozen and stored at −70° C. until use. On the day of experiment, the cell membranes were resuspended in incubation buffer: 50 mM Tris HCl (pH 7.4), 2.5 mM MgCl2, […] (Fargin et al., Nature 335, 358-360, 1988). The membranes were incubated in a final volume of 1 ml for 30 minutes at 30° C. with 1 nM [^3H]8-OH-DPAT, in the absence or presence of the test compounds. Non-specific binding was determined in the presence of 10 μM 5-HT. Incubation was stopped by addition of cold Tris-HC 1 buffer and rapid filtration through a 0.2%-polyethyleneimine-pretreated Whatman-GF/B or Schleicher-&-Schuell-GF52 filter.
The affinity of the tested compounds was evaluated as inhibition of specific binding of the radioligand to 5-HT1A receptors (IC50) by using the non-linear curve-fitting program Allfit (De Lean et al., Am. J. Physiol. 235, E97-E102 (1978). The IC50 value was converted to an affinity constant (Ki) by the equation of Cheng & Prusoff (Cheng Y. C., Prusoff W. H., Biochem. Pharmacol. 22, 3099-3108 (1973)).
As for `O=C(C1CCCCC1)N1c2ccccc2CCC1CN1CCN(c2cccc(Cl)c2)CC1` (stereo not shown) [Example 72A23, 1-(3-Chlorophenyl)-4-(1-cyclohexanecarbonyl-1,2,3,4-tetrahydroquinolin-2-ylmethyl)piperazine], the inhibition constant (Ki) (as a rule, a measure of affinity in units of concentration, obtained from inhibition or displacement) is 24.6 nM. As for `CCNC(=O)N1c2ccccc2CCC1CN1CCN(c2cccc3[nH]ccc23)CC1` (stereo not shown) [Example 20, 1-(1-Ethylaminocarbonyl-1,2,3,4-tetrahydroquinoline-2-ylmethyl)-4-(4-indolyl)piperazine], the figure is 38.6 nM. For `O=C(C1CCCCC1)N1c2ccccc2CCC1CN1CCN(c2cc(Cl)ccc2Cl)CC1` (stereo not shown) [Example 35A19, 1-(1-Cyclohexanecarbonyl-1,2,3,4-tetrahydroquinoline-2-ylmethyl)-4-(2,5-dichlorophenyl)piperazine], the inhibitory constant (Ki) came to 5.2 nM. As for `N#Cc1ccc(C(=O)N2c3ccccc3CCC2CN2CCN(c3cccc4[nH]ccc34)CC2)cc1` (stereo not shown) [Example 68A3, 1-[1-(4-Cyanobenzoyl)-1,2,3,4-tetrahydroquinoline-2-ylmethyl]-4-(4-indolyl)piperazine], the figure is 7.1 nM; as for `O=C(C1CCCCC1)N1c2ccccc2CCC1CN1CCN(c2ncccn2)CC1` (stereo not shown) [Example 35A21, 1-(1-Cyclohexanecarbonyl-1,2,3,4-tetrahydroquinoline-2-ylmethyl)-4-(2-pyrimidinyl)piperazine], 18.2 nM; as for `COc1cc(F)ccc1N1CCN(CC2CCc3cc(N)ccc3N2C(=O)C2CCCCC2)CC1` (stereo not shown) [Example 85, 1-(6-Amino-1-cyclohexanecarbonyl-1,2,3,4-tetrahydroquinoline-2-ylmethyl)-4-(4-fluoro-2-methoxyphenyl)piperazine], 41.2 nM. With `O=C(Cc1ccc2c(c1)OCO2)N1c2ccccc2CCC1CN1CCN(c2cccc3[nH]ccc23)CC1` (stereo not shown) [Example 68A49, 1-[1-[2-(5-Benzo[1,3]dioxolyl)acetyl]-1,2,3,4-tetrahydroquinoline-2-ylmethyl]-4-(4-indolyl)piperazine], the Ki amounted to 18.7 nM. As for `Cc1ccc(Cl)cc1N1CCN(CC2CCc3ccccc3N2C(=O)C2CCCCC2)CC1` (stereo not shown) [Example 72A29, 1-(5-Chloro-2-methylphenyl)-4-(1-cyclohexanecarbonyl-1,2,3,4-tetrahydroquinolin-2-ylmethyl)piperazine], the figure is 28.1 nM; as for `O=C(C1CCCCC1)N1c2ccccc2CCC1CN1CCN(Cc2ccccc2Br)CC1` (stereo not shown) [Example 35A29, 1-(2-Bromobenzyl)-4-(1-cyclohexanecarbonyl-1,2,3,4-tetrahydroquinoline-2-ylmethyl)piperazine], 31.1 nM. Next, `Cc1cccc(N2CCN(CC3CCc4ccccc4N3C(=O)C3CCCCC3)CC2)c1` (stereo not shown) [Example 72A30, 1-(1-Cyclohexanecarbonyl-1,2,3,4-tetrahydroquinolin-2-ylmethyl)-4-(3-methylphenyl)piperazine]: 10.9 nM; `COc1ccc(C(F)(F)F)cc1N1CCN(CC2CCc3ccccc3N2C(=O)C2CCCCC2)CC1` (stereo not shown) [Example 60A9, 1-(1-Cyclohexanecarbonyl-1,2,3,4-tetrahydroquinoline-2-ylmethyl)-4-(2-methoxy-5-trifluoromethylphenyl)piperazine]: 6.5 nM.

Consider `O=C(c1c(F)cccc1F)N1c2ccccc2CCC1CN1CCN(c2cccc3[nH]ccc23)CC1` (stereo not shown) [Example 68A28, 1-[1-(2,6-Difluorobenzoyl)-1,2,3,4-tetrahydroquinoline-2-ylmethyl]-4-(4-indolyl)piperazine], for which the Ki is 34.4 nM. As for `CC(=O)N1CCC(C(=O)N2c3ccccc3CCC2CN2CCN(c3cccc4c3OCCO4)CC2)CC1` (stereo not shown) [Example 76A15, 1-[1-(1-acetyl-4-piperidinecarbonyl)-1,2,3,4-tetrahydroquinolin-2-ylmethyl]-4-(2,3-dihydrobenzo[1,4]dioxin-5-yl)piperazine], the figure is 8.1 nM; as for `CNC(=S)N1c2ccccc2CCC1CN1CCN(c2cccc3[nH]ccc23)CC1` (stereo not shown) [Example 69A8, 1-(4-Indolyl)-4-[1-methylaminothiocarbonyl-1,2,3,4-tetrahydroquinoline-2-ylmethyl)piperazine], 39.5 nM; as for `COc1cccc(C(=O)N2c3ccccc3CCC2CN2CCN(c3cccc4[nH]ccc34)CC2)c1` (stereo not shown) [Example 68A67, 1-(4-Indolyl)-4-[1-(3-methoxybenzoyl)-1,2,3,4-tetrahydroquinoline-2-ylmethyl]piperazine], 9.1 nM. Take `O=C(C1CCCCC1)N1c2ccccc2CCC1CN1CCN(c2ccc(F)cc2F)CC1` (stereo not shown) [Example 72A18, 1-(1-Cyclohexanecarbonyl-1,2,3,4-tetrahydroquinolin-2-ylmethyl)-4-(2,4-difluorophenyl)piperazine]: the Ki stood at 11 nM. For the compound `COc1ccc(C(=O)N2c3ccccc3CCC2CN2CCN(c3cccc4c3OCCO4)CC2)cc1` (stereo not shown) [Example 76A4, 1-(2,3-Dihydrobenzo[1,4]dioxin-5-yl)-4-[1-(4-methoxybenzoyl)-1,2,3,4-tetrahydroquinolin-2-ylmethyl]piperazine], the Ki was determined as 3.9 nM. As for `COc1cc(F)ccc1N1CCN(CC2CCc3ccccc3N2C(=O)Cc2cccs2)CC1` (stereo not shown) [Example 74A8, 1-(4-Fluoro-2-methoxyphenyl)-4-[1-(2-thienylacetyl)-1,2,3,4-tetrahydroquinolin-2-ylmethyl]piperazine], the Ki is 5.9 nM. As for `O=S(=O)(c1ccccc1)N1c2ccccc2CCC1CN1CCN(c2cccc3[nH]ccc23)CC1` (stereo not shown) [Example 70A, 1-(4-Indolyl)-1-[1-phenylsulphonyl-1,2,3,4-tetrahydroquinoline-2-ylmethyl]piperazine], the figure is 7.8 nM; as for `CC(C)(C)NC(=O)N1c2ccccc2CCC1CN1CCN(c2cccc3c2OCCO3)CC1` (stereo not shown) [Example 76A13, 1-(2,3-Dihydrobenzo[1,4]dioxin-5-yl)-4-[1-(1,1-dimethylethylaminocarbonyl)-1,2,3,4-tetrahydroquinolin-2-ylmethyl]piperazine], 2.3 nM. With `CN(CCOc1cccc2[nH]ccc12)CC1CCc2ccccc2N1C(=O)C1CCCCC1` (stereo not shown) [Example 72A86, N-(1-Cyclohexanecarbonyl-1,2,3,4-tetrahydroquinolin-2-ylmethyl)-2-[4-(1H)-indolyloxy]ethylmethylamine], the Ki came to 4.3 nM. Turning to `O=C(C1CCCCC1)N1c2ccccc2CCC1CN1CCN(c2c(Cl)cncc2Cl)CC1` (stereo not shown) [Example 72A66, 1-(1-Cyclohexanecarbonyl-1,2,3,4-tetrahydroquinolin-2-ylmethyl)-4-(3,5-dichloropyridin-4-yl)piperazine], the Ki was 10.2 nM. Next, `O=C1CCC(CC(=O)N2c3ccccc3CCC2CN2CCN(c3cccc4[nH]ccc34)CC2)N1` (stereo not shown) [Example 68A54, 1-(4-Indolyl)-4-[1-[2-(5-oxopyrrolidin-2yl)acetyl]-1,2,3,4-tetrahydroquinoline-2-ylmethyl]piperazine]: 41.4 nM.

As for `CC(C)CC(=O)N1c2ccccc2CCC1CN1CCN(c2cccc3[nH]ccc23)CC1` (stereo not shown) [Example 68A12, 1-(4-Indolyl)-4-[1-(3-methylbutanoyl)-1,2,3,4-tetrahydroquinoline-2-ylmethyl]piperazine], the Ki stood at 2.6 nM. For the compound `COc1cc(F)ccc1N1CCN(CC2CCc3ccc(Cl)cc3N2C(=O)C2CCCCC2)CC1` (stereo not shown) [Example 57, 1-(7-Chloro-1-cyclohexanecarbonyl-1,2,3,4-tetrahydroquinoline-2-ylmethyl)-4-(4-fluoro-2-methoxyphenyl)piperazine], the Ki stood at 2.3 nM. In the case of `O=C(N1CCCCC1)N1c2ccccc2CCC1CN1CCN(c2cccc3[nH]ccc23)CC1` (stereo not shown) [Example 36, 1-(4-Indolyl)-4-(1-piperidinocarbonyl-1,2,3,4-tetrahydroquinoline-2-ylmethyl)piperazine], the Ki is 15.6 nM. As for `O=C(CC1CC1)N1c2ccccc2CCC1CN1CCN(c2cccc3c2OCCO3)CC1` (stereo not shown) [Example 76A1, 4-[1-(2-Cyclopropylacetyl)-1,2,3,4-tetrahydroquinolin-2-ylmethyl]-1-(2,3-dihydrobenzo[1,4]dioxin-5-yl)piperazine], the figure is 5.4 nM; as for `Cc1c(F)cccc1C1CCN(CC2CCc3ccccc3N2C(=O)C2CCCCC2)CC1` (stereo not shown) [Example 72A57, 1-(1-Cyclohexanecarbonyl-1,2,3,4-tetrahydroquinolin-2-ylmethyl)-4-(3-fluoro-2-methylphenyl)piperidine], 6.4 nM.
